Reference: patent US10583084B2, “Liposomal formulations for delivery of nucleic acids” (RAMOT AT TEL-AVIV UNIVERSITY LTD., priority 2014, dated 2020)

What was measured:
[1] = lipid pKa of cationic lipids

Row | lipid pKa [1] | pKa (physchem) | SMILES
1 | 6.8 |  | CCCCC/C=C\C/C=C\CCCCCCCCOCC(CN(C)C)OCCCCCCCC/C=C\C/C=C\CCCCC (centres unmarked) [DLinDMA]
2 |  | ~6.7 | CCCCC/C=C\C/C=C\CCCCCCCCC1(CCCCCCCC/C=C\C/C=C\CCCCC)OCC(CCN(C)C)O1 (centres unmarked) [DLin-KC2-DMA, 2,2-Dilinoleyl-4-(2-dimethylaminoethyl)-[1,3]-dioxolane]
